ChEMBL document CHEMBL4312012, “Development of a novel hybrid antimicrobial peptide for targeted killing of Pseudomonas aeruginosa” (Eur J Med Chem, 2020)
The source made the active and inactive calls. The calls are words filed in the database; no cut-off is given here. Peptide text beside a SMILES is read from it.

Tests used:
[1] = target: T1, Outer membrane porin F (Pseudomonas aeruginosa (strain ATCC 15692 / DSM 22644 / CIP 104116 / JCM14847 / LMG 12228 / 1C / PRS 101 / PAO1)) (UniProt P13794); test: Binding affinity to OprF in Pseudomonas aeruginosa H103 assessed as binding affinity to bacterial cell surface at 1 uM incubated for 5 mins by confocal laser scanning microscopy
T1 sequence (whole entry): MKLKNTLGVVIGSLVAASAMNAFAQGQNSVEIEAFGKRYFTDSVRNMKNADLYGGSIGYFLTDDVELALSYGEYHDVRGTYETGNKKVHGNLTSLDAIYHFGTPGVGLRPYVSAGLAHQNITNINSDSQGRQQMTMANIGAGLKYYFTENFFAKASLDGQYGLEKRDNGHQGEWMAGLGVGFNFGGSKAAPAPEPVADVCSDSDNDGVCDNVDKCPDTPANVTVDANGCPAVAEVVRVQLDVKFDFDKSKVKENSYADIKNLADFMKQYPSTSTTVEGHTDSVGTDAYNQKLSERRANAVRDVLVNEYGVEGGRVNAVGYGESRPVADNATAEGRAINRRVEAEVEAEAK

Escherichia coli [2] = test: Antibacterial activity against Escherichia coli KCTC 2223 assessed as reduction in bacterial cell growth preincubated for 3 hrs followed by medium replenishment further incubated for 18 hrs by serial microdilution method; format: functional
Candida albicans [3] = test: Antifungal activity against Candida albicans ATCC 10231 assessed as reduction in fungal cell growth preincubated for 3 hrs followed by medium replenishment further incubated for 18 hrs by serial microdilution method; format: functional
Salmonella typhimurium [4] = test: Binding affinity to cell surface of Salmonella typhimurium KCTC 2370 at 1 uM incubated for 5 mins by confocal laser scanning microscopy; format: organism-based; conditions: Salmonella enterica subsp. enterica serovar Typhimurium
Escherichia coli [5] = test: Binding affinity to cell surface of Escherichia coli KCTC 2223 at 1 uM incubated for 5 mins by confocal laser scanning microscopy; format: organism-based
Pseudomonas aeruginosa [6] = test: Antibacterial activity against Pseudomonas aeruginosa assessed as reduction in bacterial cell growth preincubated for 3 hrs followed by medium replenishment further incubated for 18 hrs by serial microdilution method; format: functional
Pseudomonas aeruginosa [7] = test: Antibacterial activity against multidrug resistant Pseudomonas aeruginosa H103 infected in BALB/c mouse infected assessed as survival rate at 15 mg/kg, ip measured on day 7; format: functional; conditions: 168 h
[8] = test system: Outer membrane porin F (Pseudomonas aeruginosa (strain ATCC 15692 / DSM 22644 / CIP 104116 / JCM14847 / LMG 12228 / 1C / PRS 101 / PAO1)), P13794 [UNDEFINED MUTATION]; test: Binding affinity to OprF mutant in Pseudomonas aeruginosa H636 at 1 uM incubated for 5 mins by confocal laser scanning microscopy
Salmonella typhimurium [9] = test: Antibacterial activity against Salmonella typhimurium KCTC 2370 assessed as reduction in bacterial cell growth preincubated for 3 hrs followed by medium replenishment further incubated for 18 hrs by serial microdilution method; format: functional, Salmonella enterica subsp. enterica serovar Typhimurium; conditions: Salmonella enterica
Staphylococcus aureus [10] = test: Antibacterial activity against Staphylococcus aureus ATCC 15752 assessed as reduction in bacterial cell growth preincubated for 3 hrs followed by medium replenishment further incubated for 18 hrs by serial microdilution method; format: functional
Escherichia coli [11] = test: Binding affinity to cell surface of Escherichia coli KCTC 2223 at 10 uM incubated for 1 hr by ELISA; format: organism-based
[12] = target: T1, Outer membrane porin F (Pseudomonas aeruginosa (strain ATCC 15692 / DSM 22644 / CIP 104116 / JCM14847 / LMG 12228 / 1C / PRS 101 / PAO1)); test: Binding affinity to OprF in Pseudomonas aeruginosa H103 at 10 uM incubated for 1 hr by ELISA
[13] = test system: Outer membrane porin F (Pseudomonas aeruginosa (strain ATCC 15692 / DSM 22644 / CIP 104116 / JCM14847 / LMG 12228 / 1C / PRS 101 / PAO1)), P13794 [UNDEFINED MUTATION]; test: Binding affinity to OprF mutant in Pseudomonas aeruginosa H636 at 10 uM incubated for 1 hr by ELISA
Pseudomonas aeruginosa [14] = test: Binding affinity to cell surface of Pseudomonas aeruginosa H103 at 10 uM incubated for 1 hr by ELISA; format: organism-based
Staphylococcus aureus [15] = test: Binding affinity to cell surface of Staphylococcus aureus ATCC 15752 at 10 uM incubated for 1 hr by ELISA; format: organism-based
[16] = target: T1, Outer membrane porin F (Pseudomonas aeruginosa (strain ATCC 15692 / DSM 22644 / CIP 104116 / JCM14847 / LMG 12228 / 1C / PRS 101 / PAO1)); test: Binding affinity to recombinant Pseudomonas aeruginosa OprF expressed in Escherichia coli BL21 (DE3) at 10 uM incubated for 1 hr by ELISA
Candida albicans [17] = test: Binding affinity to cell surface of Candida albicans ATCC 10231 at 10 uM incubated for 1 hr by ELISA; format: organism-based
Salmonella typhimurium [18] = test: Binding affinity to cell surface of Salmonella typhimurium KCTC 2370 at 10 uM incubated for 1 hr by ELISA; format: organism-based; conditions: Salmonella enterica subsp. enterica serovar Typhimurium
Pseudomonas aeruginosa [19] = test: Antibacterial activity against multidrug resistant Pseudomonas aeruginosa H103 infected in BALB/c mouse infected assessed as survival rate at 25 mg/kg, ip measured on day 7; format: functional; conditions: 168 h
Mus musculus [20] = test: In vivo antibacterial activity against multidrug resistant Pseudomonas aeruginosa H103 infected in BALB/c mouse assessed as reduction in bacterial load by measuring decrease in colony forming units in kidney at 25 mg/kg, ip measured after 12 hrs; format: functional
Erythrocyte = test: Hemolytic activity in human RBC incubated for 30 mins; format: ADME, cell-based; conditions: 0.5 h
Escherichia coli [21] = test: Antibacterial activity against Escherichia coli KCTC 2223 co-cultured with Pseudomonas aeruginosa H103 assessed as reduction in bacterial load by measuring decrease in colony forming units at 2 uM incubated for 30 mins by time-kill assay; format: functional
Pseudomonas aeruginosa [22] = test: Antibacterial activity against Pseudomonas aeruginosa H103 co-cultured with Escherichia coli KCTC 2223 assessed as reduction in bacterial load by measuring decrease in colony forming units at 2 uM incubated for 30 mins by time-kill assay; format: functional
Mus musculus [23] = test: In vivo antibacterial activity against multidrug resistant Pseudomonas aeruginosa H103 infected in BALB/c mouse assessed as reduction in bacterial load by measuring decrease in colony forming units in spleen at 25 mg/kg, ip measured after 12 hrs; format: functional
Pseudomonas aeruginosa [24] = test: Antibacterial activity against Pseudomonas aeruginosa H103 co-cultured with Salmonella typhimurium KCTC 2370 assessed as reduction in bacterial load by measuring decrease in colony forming units at 2 uM incubated for 30 mins by time-kill assay; format: functional
Mus musculus [25] = test: In vivo antibacterial activity against multidrug resistant Pseudomonas aeruginosa H103 infected in BALB/c mouse assessed as reduction in bacterial load by measuring decrease in colony forming units in liver at 25 mg/kg, ip measured after 12 hrs; format: functional
Salmonella typhimurium [26] = test: Antibacterial activity against Salmonella typhimurium KCTC 2370 co-cultured with Pseudomonas aeruginosa H103 assessed as reduction in bacterial load by measuring decrease in colony forming units at 2 uM incubated for 30 mins by time-kill assay; format: functional, organism-based; conditions: Salmonella enterica subsp. enterica serovar Typhimurium
Staphylococcus aureus [27] = test: Antibacterial activity against Staphylococcus aureus ATCC 15752 assessed as reduction in bacterial cell growth in presence of GNU7 preincubated for 3 hrs followed by medium replenishment further incubated for 18 hrs by serial microdilution method; format: functional
[28] = target: T1, Outer membrane porin F (Pseudomonas aeruginosa (strain ATCC 15692 / DSM 22644 / CIP 104116 / JCM14847 / LMG 12228 / 1C / PRS 101 / PAO1)); test: Binding affinity to OprF in Pseudomonas aeruginosa H103 assessed as binding affinity to bacterial cell surface at 10 uM incubated for 1 hr by ELISA
Escherichia coli [29] = test: Antibacterial activity against Escherichia coli KCTC 2223 assessed as reduction in bacterial cell growth in presence of GNU7 preincubated for 3 hrs followed by medium replenishment further incubated for 18 hrs by serial microdilution method; format: functional
Salmonella typhimurium [30] = test: Antibacterial activity against Salmonella typhimurium KCTC 2370 assessed as reduction in bacterial cell growth in presence of GNU7 preincubated for 3 hrs followed by medium replenishment further incubated for 18 hrs by serial microdilution method; format: functional, Salmonella enterica subsp. enterica serovar Typhimurium; conditions: Salmonella enterica
Candida albicans [31] = test: Antifungal activity against Candida albicans ATCC 10231 assessed as reduction in fungal cell growth in presence of GNU7 preincubated for 3 hrs followed by medium replenishment further incubated for 18 hrs by serial microdilution method; format: functional
Pseudomonas aeruginosa [32] = test: Antibacterial activity against Pseudomonas aeruginosa assessed as reduction in bacterial cell growth in presence of GNU7 preincubated for 3 hrs followed by medium replenishment further incubated for 18 hrs by serial microdilution method; format: functional

Molecule | Activity [1] | MIC (Escherichia coli [2]) [µM] | MIC (Candida albicans [3]) [µM] | Activity (Salmonella typhimurium [4]) | Activity (Escherichia coli [5]) | MIC (Pseudomonas aeruginosa [6]) [µM] | Activity [8] | MIC (Salmonella typhimurium [9]) [µM] | MIC (Staphylococcus aureus [10]) [µM] | Activity (Escherichia coli [11]) | Activity [12] | Activity [13] | Activity (Pseudomonas aeruginosa [14]) | Activity (Staphylococcus aureus [15]) | Activity [16] | Activity (Candida albicans [17]) | Activity (Salmonella typhimurium [18]) | survival at 25 mg/kg (Pseudomonas aeruginosa [19]) [%] | other results
H-RLLRPLLQLLKQKLR-OH | inactive | 8 | 16 | inactive | inactive | 32 | inactive | 16 | 4 | – | – | – | – | – | – | – | – | – | survival at 15 mg/kg (Pseudomonas aeruginosa [7]): 62.5%
CC(C)C[C@H](NC(=O)[C@H](CO)NC(=O)[C@H](CO)NC(=O)[C@H](CS)NC(=O)[C@@H](N)CO)C(=O)N[C@H](C(=O)N[C@H](C(=O)N[C@@H](CC(C)C)C(=O)N[C@@H](CCCNC(=N)N)C(=O)N1CCC[C@H]1C(=O)N[C@@H](CS)C(=O)NCC(=O)O)[C@@H](C)O)[C@@H](C)O (H-SCSSLTTLRPCG-OH) | – | – | – | – | – | – | – | – | – | Active | Active | Active | Active | Active | inactive | Active | Active | – | –
C[C@@H](O)[C@H]1C(=O)N2C(C(=O)O)=C(S[C@@H]3CN[C@H](C(=O)N(C)C)C3)[C@H](C)[C@H]12 [MEROPENEM] | – | – | – | – | – | – | – | – | – | – | – | – | – | – | – | – | – | 25 | –
H-VILTGPEAEYFW-OH | – | – | – | – | – | – | – | – | – | – | – | – | inactive | – | – | – | – | – | –
H-SQRKLAAKLTSKGGGRLLRPLLQLLKQKLR-OH | Active | 1 | 8 | inactive | inactive | 2 | inactive | 2 | 2 | – | – | – | – | – | – | – | – | 100 | Activity (Mus musculus [20]): 3.6 log10CFU; Activity (Erythrocyte): Non-Toxic; Activity (Escherichia coli [21]): 0.6 log10CFU; Activity (Pseudomonas aeruginosa [22]): 2.7 log10CFU; Activity (Mus musculus [23]): 2.8 log10CFU; Activity (Pseudomonas aeruginosa [24]): 1.4 log10CFU; Activity (Mus musculus [25]): 3 log10CFU; Activity (Salmonella typhimurium [26]): inactive
H-SQRKLAAKLTSK-OH | Active | > 32 | > 32 | inactive | inactive | > 32 | inactive | > 32 | > 32 | inactive | Active | inactive | – | inactive | Active | inactive | inactive | – | MIC (Staphylococcus aureus [27]): 4 µM; Activity [28]: Active; MIC (Escherichia coli [29]): 8 µM; MIC (Salmonella typhimurium [30]): 16 µM; MIC (Candida albicans [31]): 16 µM; MIC (Pseudomonas aeruginosa [32]): 32 µM
